The record followed here is patent EP4768489A1, “CYCLOBUTYL-CONTAINING COMPOUNDS” (Chia Tai Tianqing Pharmaceutical Group Co., Ltd., priority 2023, dated 2025).

Changes are numbered by the printed parent chain.

One series in a line: Mouse pharmacokinetics. Particulars: Mouse i.g. (0-48 h), 10 mpk vs i.v. 1 mpk.
Series [1] deals with T1, AR in LNCaP (T878A) cells (Homo sapiens, UniProt P10275, T878A).
T1 construct: Assay on degradation activity for AR in LNCaP (T878A) cells; endogenous in cells; host or cells: LNCaP cells
T1 sequence (P10275 1-920 T878A): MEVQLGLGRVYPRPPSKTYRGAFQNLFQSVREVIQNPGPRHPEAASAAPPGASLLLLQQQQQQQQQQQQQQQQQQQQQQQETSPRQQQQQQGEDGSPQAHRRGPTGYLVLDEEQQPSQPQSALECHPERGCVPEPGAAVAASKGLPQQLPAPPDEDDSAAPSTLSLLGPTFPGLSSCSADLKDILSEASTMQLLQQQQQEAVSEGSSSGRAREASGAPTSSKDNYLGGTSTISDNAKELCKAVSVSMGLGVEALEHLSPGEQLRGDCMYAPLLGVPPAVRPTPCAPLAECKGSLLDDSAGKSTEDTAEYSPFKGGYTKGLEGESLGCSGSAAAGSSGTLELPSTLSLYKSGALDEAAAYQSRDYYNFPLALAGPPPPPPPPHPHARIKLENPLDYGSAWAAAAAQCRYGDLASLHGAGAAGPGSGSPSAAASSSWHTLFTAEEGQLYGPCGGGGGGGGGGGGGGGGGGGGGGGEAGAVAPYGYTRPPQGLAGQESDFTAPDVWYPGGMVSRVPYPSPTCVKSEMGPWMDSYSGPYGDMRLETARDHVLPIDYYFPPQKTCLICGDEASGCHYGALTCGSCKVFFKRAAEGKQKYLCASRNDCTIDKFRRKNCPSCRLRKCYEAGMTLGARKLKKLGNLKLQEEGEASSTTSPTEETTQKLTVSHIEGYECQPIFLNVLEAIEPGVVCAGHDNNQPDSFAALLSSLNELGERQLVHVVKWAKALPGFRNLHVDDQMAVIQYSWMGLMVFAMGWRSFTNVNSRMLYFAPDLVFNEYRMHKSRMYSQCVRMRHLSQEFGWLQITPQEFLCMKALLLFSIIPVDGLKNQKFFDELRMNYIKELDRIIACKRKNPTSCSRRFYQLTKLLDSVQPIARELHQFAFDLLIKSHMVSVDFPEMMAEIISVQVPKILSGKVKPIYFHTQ
The experiment in a line: Assay on degradation activity for AR in LNCaP (T878A) cells (HTRF). The class given is cell-based. The settings on record: maximum degradation rate, 24 h. Here is the method: (§1) The detection was carried out using the HTRF HUMAN ANDROGEN RECEPTOR DETECTION KIT (cisbio, 64ANDRPEG), 4× Supplemented Lysis buffer was prepared using the Blocking reagent stock solution (100×) and Lysis buffer stock solution (4×), and 1× Supplemented Lysis buffer was prepared using the 4× Supplemented Lysis buffer and ddH2O. Premixed antibody solutions were prepared using Detection buffer, Androgen Receptor Eu Cryptate antibody, and Androgen Receptor d2 antibody.
The cells were cultured overnight in a cell incubator. […] After the cells were oscillated for 40 min at room temperature, 16 µL of the cell lysis buffer was added to a 384-well plate, the Premixed antibody solutions were added at 4 µL/well, and the mixture was left to stand at 25 °C for 2 h. […] Table 2. Degradation activity of compounds for AR in LNCaP (T878A) cells

For a further series, the system named is 22RV1 (H875Y/ARV7) cells. The experiment in a line: Assay on inhibitory activity for 22RV1 (H875Y/ARV7) cell proliferation (CellTiter-Glo). The class given is cell-based. Particulars: Homo sapiens, 168 h. The procedure: After 10 min of incubation at room temperature, the mixture was transferred to a white plate at 100 µL/well. […] Table 6. Inhibitory activity of compounds for 22RV1 (H875Y/ARV7) cell proliferation

Another series can be described thus: in vivo. The settings on record: mouse.
The test system of series [2] is MDA-PCA-2B (L702H\T878A) cells. The experiment in a line: Assay on inhibitory activity for MDA-PCA-2B (L702H\T878A) cell proliferation (CCK-8). The class given is cell-based. Particulars: 168 h. From the text: Table 7. Inhibitory activity of compounds for MDA-PCA-2B (L702H\T878A) cell proliferation
The subject of a further series is LNCaP (T878A) cells. The series is described as follows: cells. The settings on record: Homo sapiens, 168 h.
A further series concerns the target T2, AR in VCaP cells (Homo sapiens, UniProt P10275).
T2 construct: Assay on degradation activity for AR in VCaP cells; endogenous in cells; host or cells: VCaP cells
T2 sequence (P10275 1-920): T1 sequence (P10275 1-920 T878A) with A878T
The experiment in a line: Assay on degradation activity for AR in VCaP cells (HTRF human androgen receptor detection kit). The class given is cell-based. Particulars: 24 h; for DC50: AR degradation; for Dmax: maximum degradation rate. The procedure:
as §1
The cells were cultured overnight in a cell incubator. […] After the cells were oscillated for 40 min at room temperature, 16 µL of the cell lysis buffer was added to a 384-well plate, the Premixed antibody solutions were added at 4 µL/well, and the mixture was left to stand at 25 °C for 2 h. […] Table 1. Degradation activity of compounds for AR in VCaP cells

Procedure for Mouse pharmacokinetics: (§2) ICR mice weighing 18-22 g were randomized into groups of 9 after 3-5 days of acclimatization. The mice in the intragastric administration group were intragastrically given the test compound solution at a dose of 10 mg/kg (20 mg/kg or 30 mg/kg), and the mice in the intravenous injection administration group were intravenously injected with the test compound solution at a dose of 1 mg/kg.
(§3) Blood was collected from the orbit to prepare plasma samples to be tested.
(§4) 30 µL of each of the plasma samples to be tested and a standard curve sample were taken, and an acetonitrile solution containing an internal standard was added. Supernatants were obtained by protein precipitation, diluted with a 1:1 (v:v) mixed solution of acetonitrile and water, and then assayed by LC/MS/MS. Data were fitted using a non-compartmental model.
Procedure for in vivo: as §2, §3, §4

With `COc1cc(O[C@H]2C(C)(C)[C@H](NC(=O)c3ccc(N4CCC(CN5CCc6c(ccc7c(C8CCC(=O)NC8=O)noc67)C5)CC4)cc3)C2(C)C)ccc1C#N` (stereo partly shown) [Compound 1], in the series “Mouse pharmacokinetics”, the F stood at 31.99%. The compound further showed a Dmax in series [1] above 90%. This compound returned an IC50 in the series on 22RV1 (H875Y/ARV7) cells below 0.5 µM. In “in vivo” (iv, 1 mg/kg), this compound showed an AUC at 48 h of 8380 ng·h/mL, a Vd of 2.13 L/kg, a clearance of 1.78 mL/min/kg and a half-life of 13.9 h. Moreover, in the series “in vivo” (po, 10 mg/kg), the AUC at 48 h is 26800 ng·h/mL, the Cmax stood at 786 ng/mL and the half-life was 24.9 h. In addition, the IC50 in series [2] is below 0.5 µM. The IC50 in the series with LNCaP (T878A) cells was below 0.05 µM. For the same compound, at AR in VCaP cells, the DC50 is below 0.005 µM and the Dmax was above 75%.

As to `COc1cc(O[C@H]2C(C)(C)[C@H](NC(=O)c3ccc(N4CCC(CN5CCc6c(ccc7c(C8CCC(=O)NC8=O)noc67)C5)CC4)nc3)C2(C)C)ccc1C#N` (stereo partly shown) [Compound 3], the Dmax in series [1] was above 90%; at AR in VCaP cells it was above 75%. Also, the IC50 was below 0.5 µM in the series with 22RV1 (H875Y/ARV7) cells, below 0.5 µM in series [2] and below 0.05 µM in the series on LNCaP (T878A) cells. Moreover, on AR in VCaP cells, the DC50 is below 0.005 µM.

In turn, `COc1cc(O[C@H]2C(C)(C)[C@H](NC(=O)c3cnc(N4CCC(CN5CCc6c(ccc7c(C8CCC(=O)NC8=O)noc67)C5)CC4)nc3)C2(C)C)ccc1C#N` (stereo partly shown) [Compound 4] registered a F in the series “Mouse pharmacokinetics” of 55.36%. In series [1], this compound displayed a Dmax above 90%. This compound displayed an IC50 with 22RV1 (H875Y/ARV7) cells below 0.5 µM. In the series “in vivo” (iv, 1 mg/kg), the AUC at 48 h was determined as 7730 ng·h/mL, the Vd is 2.14 L/kg, the clearance was 1.97 mL/min/kg and the half-life was 10.5 h. In the series “in vivo” (po, 10 mg/kg), the exposure (AUC) at 48 h came to 39000 ng·h/mL, the concentration peaked (Cmax) at 1360 ng/mL and the half-life is 11.7 h. The IC50 in series [2] is below 0.5 µM. In addition, the IC50 with LNCaP (T878A) cells was below 0.05 µM. Besides, at AR in VCaP cells, the DC50 is below 0.005 µM and the Dmax was above 75%.

In the series “Mouse pharmacokinetics”, `COc1cc(O[C@H]2C(C)(C)[C@H](NC(=O)c3cnc(N4CCC(CN5CCc6c(ccc7c(C8CCC(=O)NC8=O)noc67)C5)CC4)cn3)C2(C)C)ccc1C#N` (stereo partly shown) [Compound 5] gave an F of 50.78%. The same compound came in with a Dmax in series [1] above 90%. In addition, in the series on 22RV1 (H875Y/ARV7) cells, the IC50 is below 0.5 µM. In addition, in “in vivo” (iv, 1 mg/kg), the AUC at 48 h worked out at 4340 ng·h/mL, the Vd worked out at 3.79 L/kg, the clearance was 3.5 mL/min/kg and the half-life is 9.91 h. In “in vivo” (po, 10 mg/kg), this compound had an AUC at 48 h of 22100 ng·h/mL, a Cmax of 1010 ng/mL and a half-life of 9.72 h. In series [2], this compound registered an IC50 below 0.5 µM. In the series with LNCaP (T878A) cells, this compound yielded an IC50 below 0.05 µM. On AR in VCaP cells, the half-maximal degradation concentration (DC50) is below 0.005 µM and the Dmax is above 75%.

For the compound `COc1cc(O[C@H]2C(C)(C)[C@H](NC(=O)c3ccc(N4CCC(CN5CCc6c(ccc7c(C8CCC(=O)NC8=O)noc67)C5)CC4)nn3)C2(C)C)ccc1C#N` (stereo partly shown) [Compound 6], the Dmax in series [1] is above 90%. In the series with LNCaP (T878A) cells, the IC50 was below 0.05 µM. For the same compound, on AR in VCaP cells, the DC50 is below 0.005 µM and the Dmax was above 75%.
